Measured values as given in patent US6222035A, “[1,2,4] triazolo [1,5-C] pyrimidine derivatives” (Kyowa Hakko Kogyo Co., Ltd., priority 1997, dated 2001).
Structures can show the parent of a compound that is named as a salt.

What was measured:
adenosine A2A receptor = biological target: T1, adenosine A2A receptor (Rattus norvegicus, UniProt P30543); assay: Adenosine receptor binding activity (adenosine A2A receptor binding test), 3H-CGS 21680 binding; settings: 2 h; 10^-7 M; read-out: A2A receptor inhibition ratio (%)
T1 construct: from tissue; host or cells: rat corpus striatum, washed membrane suspension
T1 sequence (P30543 whole entry): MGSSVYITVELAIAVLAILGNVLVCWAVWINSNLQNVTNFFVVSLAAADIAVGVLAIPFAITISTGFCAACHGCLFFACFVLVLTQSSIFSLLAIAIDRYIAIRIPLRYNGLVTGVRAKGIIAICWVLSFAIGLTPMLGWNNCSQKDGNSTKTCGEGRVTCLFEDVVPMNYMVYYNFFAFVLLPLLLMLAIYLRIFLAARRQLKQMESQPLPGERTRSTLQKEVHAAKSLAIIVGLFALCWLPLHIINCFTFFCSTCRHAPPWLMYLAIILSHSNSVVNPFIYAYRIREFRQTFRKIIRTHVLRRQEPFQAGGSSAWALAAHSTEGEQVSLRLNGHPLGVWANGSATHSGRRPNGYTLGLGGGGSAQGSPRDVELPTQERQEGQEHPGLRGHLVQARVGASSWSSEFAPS
Protocol: Adenosine receptor binding activity (adenosine A2A receptor binding test) This test was carried out by slightly modifying the method of Bruns et al. [Molecular Pharmacology, 29: 331 (1986)].
Corpus striatum of a rat was suspended in an ice-cooled 50 mM tris(hydroxymethyl)aminomethane hydrochloride (hereinafter referred to as "Tris-HCl") buffer (pH 7.7) using Polytron Homogenizer (manufactured by Kinematica Co.). The suspension was centrifuged (50,000×g, 10 minutes), and the obtained precipitate was re-suspended in the same amount of 50 mM Tris-HCl buffer. The suspension was centrifuged under the same conditions, and the final precipitate was suspended in 50 mM Tris-HCl [containing 10 mM magnesium chloride and 0.02 unit/mg tissue of adenosine deaminase (manufactured by Sigma Co.)] to give a tissue concentration of 5 mg (wet weight)/ml.
To 1 ml of the tissue suspension thus prepared were added 50 μl of tritium-labeled CGS 21680 {^3 H-2-[p-(2-carboxyethyl)phenethylamino]-5'-N-ethylcarboxamido)adenosine: 40 Ci/mmol; manufactured by New England Nuclear Co.[The Journal of Pharmacology and Experimental Therapeutics, 251: 888 (1989)]} (final concentration:4.0 nM) and 50 μl of a test compound. The resulting mixture was allowed to stand for 120 minutes at 25° C., and then rapidly filtered by suction through a glass fiber filter (GF/C, manufactured by Whatman Co.) The filter was immediately washed three times with […] of an ice-cooled 50 mM Tris-HCl buffer, and transferred to a vial, a scintillator (EX-H , manufactured by Wako Pure Chemical Industries, Ltd.) was added thereto, and the radioactivity on the filter was determined with a liquid scintillation counter (manufactured by Packard Instrument Co.) […]
The inhibition ratio of the test compound against the A2A receptor binding (^3 H-CGS 21680 binding) was calculated by the following equation:
Inhibition ratio (%)={1-(Amount of the binding in the presence of the test compound-Amount of the nonspecific binding)/(Amount of the total binding-Amount of the nonspecific binding)}×100
(Note) Amount of the total binding means the amount of radioactivity of ^3 H-CGS 21680 bound in the absence of the test compound. Amount of the nonspecific binding means the amount of radioactivity of ^3 H-CGS 21680 bound in the presence of 100 μM cyclopentyladenosine (CPA, manufactured by Sigma Co.) Amount of the binding in the presence of the test compound means the amount of radioactivity of ^3 H-CGS 21680 bound in the presence of the test compound at various levels of concentrations.

[1] = tested on: CGS 21680-induced catalepsy in mice; assay: Activity on CGS 21680-induced Catalepsy; type: in vivo, mouse (male ddY); settings: 10 mg/kg oral; for Total score (catalepsy): 10 animals, maximum 50 points, control 48; for Number of Animals showing remission: catalepsy score 4 points or less in 10 cases; for inhibition in vivo at 10 mg/kg: Mus musculus, CGS 21680-induced catalepsy, read-out: Remission ratio (%)
Protocol: Activity on CGS 21680-induced Catalepsy
Parkinson's disease is motor deficit based on the degeneration and cell death of the nigrostriatal dopaminergic neuron. […] [Journal of Neuroscience, 16: 605 (1996)]. Accordingly, it is considered that adenosine A2A receptor agonists positively regulate the output of the striopallidal GABAergic neurons and, as a result, catalepsy is induced by the administration of CGS 21680.
This test was carried out using 10 animals per group of male ddY mice of 5 week age (22 to 25 g in body weight, Japan SLC). CGS 21680 (manufactured by RBI) was dissolved in a physiological saline (manufactured by Otsuka Pharmaceutical), and 10 μg/20 μl of the solution was injected into mouse intracerebro-ventricle. Test compounds were used by suspending them in distilled water containing 0.3% of polyoxyethylene(20)sorbitan monooleate (hereinafter referred to as "Tween 80") (manufactured by Otsuka Pharmaceutical). […] One hour after the administration of the test compound, only forelimbs or only hindlimbs of each animal were laid on a vertically arranged stand made of acryl, having a size of 4.5 cm in height and 1.0 cm in width, to measure catalepsy symptoms. All of the compounds were administered orally in a dose of 10 mg/kg.
The effect was judged by total catalepsy scores of 10 animals in one group (the maximum is 50 points). When the total score was 40 points or less, the activity of drugs was judged positive. The number of animals showing remission of catalepsy was expressed by the number of cases in which the catalepsy score was 4 points or less in 10 cases. The catalepsy remission ratio was expressed as the percentage of the total score in the test compound-administered group to the total score in the control group.

## CC(O)CN1CCN(c2cc3nc(-c4ccco4)nn3c(N)n2)CC1 (racemic) [Compound 105, (±)-5-Amino-2-(2-furyl)-7-(4-(2-hydroxypropyl)piperazinyl)[1,2,4]triazolo[1,5-c]pyrimidine]
Adenosine A2A receptor
  inhibition at 0.1 µM: 41%
[1]
  Total score (catalepsy): 4
  Number of Animals showing remission: 10
  inhibition in vivo at 10 mg/kg: 92%

## CCCN1CCN(c2cc3nc(-c4ccco4)nn3c(N)n2)CC1 [Compound 123, 5-Amino-2-(2-furyl)-7-(4-propylpiperazinyl)[1,2,4]triazolo[1,5-c]pyrimidine]
Adenosine A2A receptor
  inhibition at 0.1 µM: 42%
[1]
  Total score (catalepsy): 1
  Number of Animals showing remission: 10
  inhibition in vivo at 10 mg/kg: 96%

## Nc1nc(N2CCN(Cc3cnns3)CC2)cc2nc(-c3ccco3)nn12 [Compound 144, 5-Amino-2-(2-furyl)-7-(4-(1,2,3-thiadiazol-5-ylmethyl)piperazinyl)[1,2,4]triazolo[1,5-c]pyrimidine]
Adenosine A2A receptor
  inhibition at 0.1 µM: 58%
[1]
  Total score (catalepsy): 9
  Number of Animals showing remission: 9
  inhibition in vivo at 10 mg/kg: 80%

## Nc1nc(N2CCN(Cc3ccccn3)CC2)cc2nc(-c3ccco3)nn12 [Compound 84, 5-Amino-2-(2-furyl)-7-(4-(2-picolyl)piperazinyl)[1,2,4]triazolo[1,5-c]pyrimidine]
Adenosine A2A receptor
  inhibition at 0.1 µM: 63%
[1]
  Total score (catalepsy): 9
  Number of Animals showing remission: 9
  inhibition in vivo at 10 mg/kg: 78%

## C=CCN1CCN(c2cc3nc(-c4ccco4)nn3c(N)n2)CC1 [Compound 124, 5-Amino-7-(4-allylpiperazinyl)-2-(2-furyl)[1,2,4]triazolo[1,5-c]pyrimidine]
Adenosine A2A receptor
  inhibition at 0.1 µM: 59%
[1]
  Total score (catalepsy): 12
  Number of Animals showing remission: 9
  inhibition in vivo at 10 mg/kg: 76%

## COc1cc(CN2CCN(c3cc4nc(-c5ccco5)nn4c(N)n3)CC2)cc(OC)c1OC [Compound 77, 5-Amino-2-(2-furyl)-7-(4-(3,4,5-trimethoxybenzyl)piperazinyl)[1,2,4]triazolo[1,5-c]pyrimidine]
Adenosine A2A receptor
  inhibition at 0.1 µM: 77%
[1]
  Total score (catalepsy): 21
  Number of Animals showing remission: 9
  inhibition in vivo at 10 mg/kg: 54%

## Nc1nc(N2CCN(CCCc3cccnc3)CC2)cc2nc(-c3ccco3)nn12 [Compound 87, 5-Amino-2-(2-furyl)-7-(4-(3-(3-pyridyl)propyl)piperazinyl)[1,2,4]triazolo[1,5-c]pyrimidine hydrochloride]
Adenosine A2A receptor
  inhibition at 0.1 µM: 77%
[1]
  Total score (catalepsy): 14
  Number of Animals showing remission: 9
  inhibition in vivo at 10 mg/kg: 68%

## CC(C)OCCCN1CCN(c2cc3nc(-c4ccco4)nn3c(N)n2)CC1 [Compound 101, 5-Amino-2-(2-furyl)-7-(4-(3-isopropoxypropyl)piperazinyl)[1,2,4]triazolo[1,5-c]pyrimidine]
Adenosine A2A receptor
  inhibition at 0.1 µM: 46%
[1]
  Total score (catalepsy): 8
  Number of Animals showing remission: 10
  inhibition in vivo at 10 mg/kg: 82%

## N#Cc1ccccc1CSc1cc2nc(-c3ccco3)nn2c(N)n1 [Compound 188, 5-Amino-7-(2-cyanobenzylthio)-2-(2-furyl)[1,2,4]triazolo[1,5-c]pyrimidine]
Adenosine A2A receptor
  inhibition at 0.1 µM: 91%
[1]
  Total score (catalepsy): 15
  Number of Animals showing remission: 2
  inhibition in vivo at 10 mg/kg: 70%

## Nc1nc(N2CCN(Cc3ccccc3F)CC2)cc2nc(-c3ccco3)nn12 [Compound 78, 5-Amino-7-(4-(2-fluorobenzyl)piperazinyl)-2-(2-furyl)[1,2,4]triazolo[1,5-c]pyrimidine]
Adenosine A2A receptor
  inhibition at 0.1 µM: 85%
[1]
  Total score (catalepsy): 6
  Number of Animals showing remission: 10
  inhibition in vivo at 10 mg/kg: 86%

## COc1cc(CN2CCN(c3cc4nc(-c5ccco5)nn4c(N)n3)CC2)cc(OC)c1 [Compound 76, 5-Amino-7-(4-(3,5-dimethoxybenzyl)piperazinyl)-2-(2-furyl)[1,2,4]triazolo[1,5-c]pyrimidine]
Adenosine A2A receptor
  inhibition at 0.1 µM: 73%
[1]
  Total score (catalepsy): 11
  Number of Animals showing remission: 10
  inhibition in vivo at 10 mg/kg: 76%

## CCOCCCN1CCN(c2cc3nc(-c4ccco4)nn3c(N)n2)CC1 [Compound 100, 5-Amino-7-(4-(3-ethoxypropyl)piperazinyl)-2-(2-furyl)[1,2,4]triazolo[1,5-c]pyrimidine]
Adenosine A2A receptor
  inhibition at 0.1 µM: 54%
[1]
  Total score (catalepsy): 4
  Number of Animals showing remission: 10
  inhibition in vivo at 10 mg/kg: 90%

## CCC(=O)c1cnc(N)n2nc(-c3ccco3)nc12 [Compound 158, 5-Amino-2-(2-furyl)-8-propionyl[1,2,4]triazolo[1,5-c]pyrimidine]
Adenosine A2A receptor
  inhibition at 0.1 µM: 92%
[1]
  Total score (catalepsy): 23
  Number of Animals showing remission: 8
  inhibition in vivo at 10 mg/kg: 52%

## Cc1nc(CN2CCN(c3cc4nc(-c5ccco5)nn4c(N)n3)CC2)cs1 [Compound 142, 5-Amino-2-(2-furyl)-7-(4-(2-methylthiazol-4-ylmethyl)piperazinyl)[1,2,4]triazolo[1,5-c]pyrimidine]
Adenosine A2A receptor
  inhibition at 0.1 µM: 66%
[1]
  Total score (catalepsy): 6
  Number of Animals showing remission: 10
  inhibition in vivo at 10 mg/kg: 88%

## Nc1nc(N2CCN(CCOCc3ccccc3)CC2)cc2nc(-c3ccco3)nn12 [Compound 97, 5-Amino-7-(4-(2-benzyloxyethyl)piperazinyl)-2-(2-furyl)[1,2,4]triazolo[1,5-c]pyrimidine hydrochloride]
Adenosine A2A receptor
  inhibition at 0.1 µM: 79%
[1]
  Total score (catalepsy): 4
  Number of Animals showing remission: 10
  inhibition in vivo at 10 mg/kg: 90%

## Nc1nc(N2CCN(CCOCCO)CC2)cc2nc(-c3ccco3)nn12 [Compound 103, 5-Amino-2-(2-furyl)-7-(4-(2-(2-hydroxyethoxy)ethyl)piperazinyl)[1,2,4]triazolo[1,5-c]pyrimidine]
Adenosine A2A receptor
  inhibition at 0.1 µM: 53%
[1]
  Total score (catalepsy): 2
  Number of Animals showing remission: 10
  inhibition in vivo at 10 mg/kg: 94%

## CCOCCN1CCN(c2cc3nc(-c4ccco4)nn3c(N)n2)CC1 [Compound 96, 5-Amino-7-(4-(2-ethoxyethyl)piperazinyl)-2-(2-furyl)[1,2,4]triazolo[1,5-c]pyrimidine]
Adenosine A2A receptor
  inhibition at 0.1 µM: 58%
[1]
  Total score (catalepsy): 7
  Number of Animals showing remission: 9
  inhibition in vivo at 10 mg/kg: 86%

## Nc1nc(N2CCN(CCF)CC2)cc2nc(-c3ccco3)nn12 [Compound 126, 5-Amino-7-(4-(2-fluoroethyl)piperazinyl)-2-(2-furyl)[1,2,4]triazolo[1,5-c]pyrimidine]
Adenosine A2A receptor
  inhibition at 0.1 µM: 60%
[1]
  Total score (catalepsy): 2
  Number of Animals showing remission: 9
  inhibition in vivo at 10 mg/kg: 96%

## Nc1nc(N2CCN(c3ccccn3)CC2)cc2nc(-c3ccco3)nn12 [Compound 93, 5-Amino-2-(2-furyl)-7-(4-(2-pyridyl)piperazinyl)[1,2,4]triazolo[1,5-c]pyrimidine]
Adenosine A2A receptor
  inhibition at 0.1 µM: 36%
[1]
  Total score (catalepsy): 10
  Number of Animals showing remission: 8
  inhibition in vivo at 10 mg/kg: 66%
